# In patent publication US20230107642A1 (Erasca, Inc., priority 2020, published 2023):
# Biological target: T1, K-Ras G12C (Homo sapiens, UniProt P01116, G12C)
# T1 construct: This protein contained 188 amino acids in total, including an N-terminal 6-Histidine tag; made in house; host or cells: E. coli BL21
# Test: CAF assay (% CAF; method in Example 7, not in this part)
# Type: binding
# Conditions: 10 uM compound, 1 h incubation
row,SMILES,"% CAF @ 10 uM, 1h [%]"
1,"C=CC(=O)N1CCN(c2nc(=O)n3c4c(c(-c5ccc(F)cc5)c(Cl)cc24)SC[C@@H](OC)C3)[C@@H](C)C1 [Example 537, (S)-8-((S)-4-acryloyl-2-methylpiperazin-1-yl)-10-chloro-11-(4-fluorophenyl)-3-methoxy-3,4-dihydro-2H,6H-[1,4]thiazepino[2,3,4-ij]quinazolin-6-one]",96
2,"C=CC(=O)N1C[C@H](C)N(c2nc(=O)n3c4c(c(-c5cc(F)c(F)cc5F)c(Cl)cc24)SC[C@@H]3CN2CCn3c(nnc3C(F)(F)F)C2)C[C@H]1C [Example 459, (3S)-7-((2S,5R)-4-acryloyl-2,5-dimethylpiperazin-1-yl)-9-chloro-3-((3-(trifluoromethyl)-5,6-dihydro-[1,2,4]triazolo[4,3-a]pyrazin-7(8H)-yl)methyl)-10-(2,4,5-trifluorophenyl)-2H-[1,4]thiazino[2,3,4-ij]quinazolin-5(3H)-one]",82.2
3,"C=CC(=O)N1CCN(c2nc(=O)n3c4c(c(-c5cc(F)c(F)cc5F)c(Cl)cc24)SC[C@@H]3CC2CCN(C3COC3)CC2)[C@@H](C)C1 [Example 421, (3S)-7-((S)-4-acryloyl-2-methylpiperazin-1-yl)-9-chloro-3-((1-(oxetan-3-yl)piperidin-4-yl)methyl)-10-(2,4,5-trifluorophenyl)-2H-[1,4]thiazino[2,3,4-ij]quinazolin-5(3H)-one]",85.1
4,"C=CC(=O)N1[C@H](C)CN(c2nc(=O)n3c4c(c(-c5ccc(F)cc5)c(C(F)(F)F)cc24)SC[C@@H](OC)C3)C[C@@H]1C [Example 585, (S)-8-((3S,5R)-4-acryloyl-3,5-dimethylpiperazin-1-yl)-11-(4-fluorophenyl)-3-methoxy-10-(trifluoromethyl)-3,4-dihydro-2H,6H-[1,4]thiazepino[2,3,4-ij]quinazolin-6-one]",97
5,"C=CC(=O)N1C[C@H](C)N(c2nc(=O)n3c4c(c(-c5ccc(F)cc5F)c(C(F)(F)F)cc24)SCC2(COC2)C3)C[C@H]1C [Example 588, 8′-((2S,5R)-4-Acryloyl-2,5-dimethylpiperazin-1-yl)-11′-(2,4-difluorophenyl)-10′-(trifluoromethyl)-2′H,4′H,6′H-spiro[oxetane-3,3′-[1,4]thiazepino[2,3,4-ij]quinazolin]-6′-one]",95.9
6,"C=CC(=O)N1C[C@H](C)N(c2nc(=O)n3c4c(c(-c5cc(Cl)c(F)cc5F)c(Cl)cc24)SC[C@@H]3CC2CCN(CC(F)F)CC2)C[C@H]1C [Example 461, (3S)-7-((2S,5R)-4-acryloyl-2,5-dimethylpiperazin-1-yl)-9-chloro-10-(5-chloro-2,4-difluorophenyl)-3-((1-(2,2-difluoroethyl)piperidin-4-yl)methyl)-2H-[1,4]thiazino[2,3,4-ij]quinazolin-5(3H)-one]",79.5

# Further lines, results first:
row,"% CAF @ 10 uM, 1h [%]",SMILES
1,65.3,"C=CC(=O)N1C[C@H](C)N(c2nc(=O)n3c4c(c(-c5cc(Cl)c(F)cc5F)c(Cl)cc24)SC[C@@H]3COC)C[C@H]1C [Example 496, (3S)-7-((2S,5R)-4-acryloyl-2,5-dimethylpiperazin-1-yl)-9-chloro-10-(5-chloro-2,4-difluorophenyl)-3-(methoxymethyl)-2H-[1,4]thiazino[2,3,4-ij]quinazolin-5(3H)-one]"
2,96.7,"C=CC(=O)N1[C@H](C)CN(c2nc(=O)n3c4c(c(-c5ccc(F)cc5F)c(C(F)(F)F)cc24)SC[C@@H]3COC)C[C@@H]1C (atropisomer, axis not shown) [Example 547, (3S,10R)-7-((3S,5R)-4-acryloyl-3,5-dimethylpiperazin-1-yl)-10-(2,4-difluorophenyl)-3-(methoxymethyl)-9-(trifluoromethyl)-2,3-dihydro-5H-[1,4]thiazino[2,3,4-ij]quinazolin-5-one]"
3,21,"C=CC(=O)N1CCN(c2nc(=O)n3c4c(c(-c5c(F)cc(F)cc5F)c(C(F)(F)F)cc24)SCCC3)[C@@H](C)C1 [Example 455, (S)-8-(4-acryloyl-2-methylpiperazin-1-yl)-10-(trifluoromethyl)-11-(2,4,6-trifluorophenyl)-3,4-dihydro-2H,6H-[1,4]thiazepino[2,3,4-ij]quinazolin-6-one]"
4,83.8,"C=CC(=O)N1[C@H](C)CN(c2nc(=O)n3c4c(c(-c5cc(Cl)c(F)cc5F)c(C(F)(F)F)cc24)SC[C@@H]3COC)C[C@@H]1C [Example 559, (3S)-7-((3S,5R)-4-acryloyl-3,5-dimethylpiperazin-1-yl)-10-(5-chloro-2,4-difluorophenyl)-3-(methoxymethyl)-9-(trifluoromethyl)-2H-[1,4]thiazino[2,3,4-ij]quinazolin-5(3H)-one]"
5,35,"C=CC(=O)N1CCN(c2nc(=O)n3c4c(c(-c5cc(Cl)c(F)cc5F)c(C(F)(F)F)cc24)SC[C@H]3COCOC)[C@@H](C)C1 [Example 470, (3R)-7-((S)-4-acryloyl-2-methylpiperazin-1-yl)-10-(5-chloro-2,4-difluorophenyl)-3-((methoxymethoxy)methyl)-9-(trifluoromethyl)-2H-[1,4]thiazino[2,3,4-ij]quinazolin-5(3H)-one]"
6,96,"C=CC(=O)N1[C@H](C)CN(c2nc(=O)n3c4c(c(-c5cc(Cl)c(F)cc5F)c(C(F)(F)F)cc24)SC[C@@H](OC)C3)C[C@@H]1C [Example 539, (3S)-8-((3S,5R)-4-acryloyl-3,5-dimethylpiperazin-1-yl)-11-(5-chloro-2,4-difluorophenyl)-3-methoxy-10-(trifluoromethyl)-3,4-dihydro-2H,6H-[1,4]thiazepino[2,3,4-ij]quinazolin-6-one]"
7,96.5,"C=CC(=O)N1C[C@H](C)N(c2nc(=O)n3c4c(c(-c5ccc(F)cc5F)c(C(F)(F)F)cc24)SC[C@@H]3COC)C[C@H]1C (atropisomer, axis not shown) [Example 509, (3S,10R)-7-((2S,5R)-4-acryloyl-2,5-dimethylpiperazin-1-yl)-10-(2,4-difluorophenyl)-3-(methoxymethyl)-9-(trifluoromethyl)-2,3-dihydro-5H-[1,4]thiazino[2,3,4-ij]quinazolin-5-one]"
8,63.2,"C=CC(=O)N1C[C@H](C)N(c2nc(=O)n3c4c(c(-c5cc(Cl)c(F)cc5F)c(C(F)(F)F)cc24)SC[C@@H]3COC)C[C@H]1C [Example 492, (3S)-7-((2S,5R)-4-acryloyl-2,5-dimethylpiperazin-1-yl)-10-(5-chloro-2,4-difluorophenyl)-3-(methoxymethyl)-9-(trifluoromethyl)-2H-[1,4]thiazino[2,3,4-ij]quinazolin-5(3H)-one]"

# Same assay, conditions: 10 uM, 60 min; Table 2a
row,% CAF 10 uM @ 60 min [%],SMILES
1,67,"C=CC(=O)N1CCN(c2nc(=O)n3c4c(c(-c5cc(C6CC6)ccc5F)c(Cl)cc24)SCC3)[C@@H](C)C1 [Example 62a, 7-((S)-4-acryloyl-2-methylpiperazin-1-yl)-9-chloro-10-(5-cyclopropyl-2-fluorophenyl)-2,3-dihydro-5H-[1,4]thiazino[2,3,4-ij]quinazolin-5-one]"
2,70,C[C@H]1CN(C(=O)/C=C/C(F)(F)F)CCN1c1nc(=O)n2c3c(c(-c4cc(F)cc(Cl)c4)c(Cl)cc13)SCC2 [Example 65]

# Same assay, conditions: 10 uM, 1 h; Table 3
row,"% CAF @ 10 uM, 1h [%]",SMILES
1,45.2,"C=CC(=O)N1CCN(c2nc(=O)n3c4c(c(-c5c(F)cc(Cl)cc5F)c(Cl)cc24)SCC3)[C@@H](C)C1 [Example 106, (S)-7-(4-acryloyl-2-methylpiperazin-1-yl)-9-chloro-10-(4-chloro-2,6-difluorophenyl)-2,3-dihydro-5H-[1,4]thiazino[2,3,4-ij]quinazolin-5-one]"
2,3,C[C@H]1CN(C(=O)/C=C/C(F)(F)F)CCN1c1nc(=O)n2c3c(c(-c4cc(F)cc(Cl)c4)c(Cl)cc13)SCC2 [Example 65]
3,54,"C=CC(=O)N1CCN(c2nc(=O)n3c4c(c(-c5cccc6c5C(=O)NC6)c(Cl)cc24)SCC3)[C@@H](C)C1 [Example 96, 7-((S)-4-acryloyl-2-methylpiperazin-1-yl)-9-chloro-10-(3-oxoisoindolin-4-yl)-2,3-dihydro-5H-[1,4]thiazino[2,3,4-ij]quinazolin-5-one]"
4,94.7,"C=CC(=O)N1CCN(c2nc(=O)n3c4c(c(-c5ccc(F)cc5F)c(Cl)cc24)SC[C@@H]3CCCN2C[C@@H]3C[C@H]2CO3)[C@@H](C)C1 [Example 94, (3S)-3-(3-((1S,4S)-2-oxa-5-azabicyclo[2.2.1]heptan-5-yl)propyl)-7-((S)-4-acryloyl-2-methylpiperazin-1-yl)-9-chloro-10-(2,4-difluorophenyl)-2,3-dihydro-5H-[1,4]thiazino[2,3,4-ij]quinazolin-5-one]"
5,75.9,"C=CC(=O)N1CCN(c2nc(=O)n3c4c(c(-c5c(F)cccc5F)c(Cl)cc24)SCC3)[C@@H](C)C1 [Example 170, (S)-7-(4-acryloyl-2-methylpiperazin-1-yl)-9-chloro-10-(2,6-difluorophenyl)-2,3-dihydro-5H-[1,4]thiazino[2,3,4-ij]quinazolin-5-one]"

row,SMILES,"% CAF @ 10 uM, 1h [%]"
1,"C=CC(=O)N1CC2CC(C1)N2c1nc(=O)n2c3c(c(-c4ccc(F)cc4F)c(Cl)cc13)SCC2 [Example 135, 7-(3-acryloyl-3,6-diazabicyclo[3.1.1]heptan-6-yl)-9-chloro-10-(2,4-difluorophenyl)-2,3-dihydro-5H-[1,4]thiazino[2,3,4-ij]quinazolin-5-one]",0

# Same assay, conditions: 10 μM, 1 h; Table 4
row,SMILES,"% CAF @ 10 μM, 1 h [%]"
1,"C=CC(=O)N1CCN(c2nc(=O)n3c4c(c(-c5ccc(F)cc5F)c(Cl)cc24)SC[C@@H]3CCCN2C[C@@H]3C[C@H]2CO3)[C@@H](C)C1 [Example 342, (3S)-3-(3-((1S,4S)-2-oxa-5-azabicyclo[2.2.1]heptan-5-yl)propyl)-7-((S)-4-acryloyl-2-methylpiperazin-1-yl)-9-chloro-10-(2,4-difluorophenyl)-2H-[1,4]thiazino[2,3,4-ij]quinazolin-5(3H)-one]",94.7
2,"C=CC(=O)N1C2CC(=O)CC1CN(c1nc(=O)n3c4c(c(-c5ccc(F)cc5F)c(C(F)(F)F)cc14)OCCC3)C2 [Example 338, 8-(9-acryloyl-7-oxo-3,9-diazabicyclo[3.3.1]nonan-3-yl)-11-(2,4-difluorophenyl)-10-(trifluoromethyl)-3,4-dihydro-2H,6H-[1,4]oxazepino[2,3,4-ij]quinazolin-6-one]",95.3
